Publication PMC12373846, “Hemoglobin as a pseudoperoxidase and drug target for oxidative stress-related diseases” (Signal Transduction and Targeted Therapy, 2025)
Several values for one entry are separate records, joined by “and”; a condition that tells them apart may be missing. Identical values can stand only once. Like-named read-outs stand apart in the source and are kept apart here.

Key:
Assay in all cases: SafetyScreen87 panel
hERG potassium channel = biological target: T1, hERG potassium channel (Homo sapiens, UniProt Q12809); conditions: human, probe [3H] Dofetilide, 1.0E-06 M; read-out: % Inhibition of Control Specific Binding (1st, 2nd, Mean)
T1 construct: Eurofins Discovery (Cerep, France) SafetyScreen87 panel
Procedure: (§1) The possibility of KDS12025 on kinase off-target, the KINOMEscan panel of scanEDGE assay was conducted in DiscoverX (CA, USA) using a site-directed competition binding with the test compounds. The assay results are given in Supplementary Table 4 and experimental information is available on the DiscoverX web page (www.discoverx.com). Moreover, the Delta SafetyScreen87 panel assay was conducted in Eurofins Discovery (Cerep, France). The assay results are given in Supplementary Table 5 and experimental information is available on the DiscoverX web page (https://www.eurofinsdiscoveryservices.com).

[1] = biological target: T2, mGluR5 (h) (agonist radioligand) (Homo sapiens, UniProt P41594); conditions: 1.0E-06 M, read-out: % Inhibition of Control Specific Binding (1st, 2nd, Mean)
T2 construct: purchased DiscoverX KINOMEscan scanEDGE; Eurofins Cerep SafetyScreen87
Procedure: as §1

[2] = biological target: T3, Estrogen ER alpha (h) (agonist radioligand) (Homo sapiens, UniProt P03372); conditions: 1.0E-06 M; mean; read-out: % Inhibition of Control Specific Binding (1st, 2nd, Mean)
T3 construct: purchased DiscoverX KINOMEscan scanEDGE; Eurofins Cerep SafetyScreen87
Procedure: as §1

[3] = biological target: T4, D2L (h) (antagonist radioligand) (Homo sapiens, UniProt P14416); conditions: 1.0E-06 M, read-out: % Inhibition of Control Specific Binding (1st, 2nd, Mean)
T4 construct: purchased DiscoverX KINOMEscan scanEDGE; Eurofins Cerep SafetyScreen87
Procedure: as §1

[4] = biological target: T5, kappa (h) (KOP) (agonist radioligand) (Homo sapiens, UniProt P41145); conditions: 1.0E-06 M; mean; read-out: % Inhibition of Control Specific Binding (1st, 2nd, Mean)
T5 construct: purchased DiscoverX KINOMEscan scanEDGE; Eurofins Cerep SafetyScreen87
Procedure: as §1

[5] = biological target: T6, PPARgamma (h) (agonist radioligand) (Homo sapiens, UniProt P37231); conditions: read-out: % Inhibition of Control Specific Binding (1st, 2nd, Mean); 1.0E-06 M
T6 construct: purchased DiscoverX KINOMEscan scanEDGE; Eurofins Cerep SafetyScreen87
Procedure: as §1

[6] = biological target: T7, M1 (h) (antagonist radioligand) (Homo sapiens, UniProt P11229); conditions: 1.0E-06 M; mean; read-out: % Inhibition of Control Specific Binding (1st, 2nd, Mean)
T7 construct: purchased DiscoverX KINOMEscan scanEDGE; Eurofins Cerep SafetyScreen87
Procedure: as §1

[7] = biological target: T8, beta 2 (h) (antagonist radioligand) (Homo sapiens, UniProt P07550)
T8 construct: purchased DiscoverX KINOMEscan scanEDGE; Eurofins Cerep SafetyScreen87
Procedure: as §1

[8] = tested on: KV channel (antagonist radioligand); conditions: 1.0E-06 M, read-out: % Inhibition of Control Specific Binding (1st, 2nd, Mean)
Procedure: as §1

[9] = biological target: T9, AR(h) (agonist radioligand) (Homo sapiens, UniProt P10275, T878A); conditions: 1.0E-06 M; mean; read-out: % Inhibition of Control Specific Binding (1st, 2nd, Mean)
T9 construct: purchased DiscoverX KINOMEscan scanEDGE; Eurofins Cerep SafetyScreen87
Procedure: as §1

[10] = biological target: T10, H1 (h) (antagonist radioligand) (Homo sapiens, UniProt P35367); conditions: 1.0E-06 M; mean; read-out: % Inhibition of Control Specific Binding (1st, 2nd, Mean)
T10 construct: purchased DiscoverX KINOMEscan scanEDGE; Eurofins Cerep SafetyScreen87
Procedure: as §1

[11] = biological target: T11, alpha 1D (h) (antagonist radioligand) (Homo sapiens, UniProt P25100); conditions: 1.0E-06 M, read-out: % Inhibition of Control Specific Binding (1st, 2nd, Mean)
T11 construct: purchased DiscoverX KINOMEscan scanEDGE; Eurofins Cerep SafetyScreen87
Procedure: as §1

[12] = biological target: T12, H2 (h) (antagonist radioligand) (Homo sapiens, UniProt P25021); conditions: read-out: % Inhibition of Control Specific Binding (1st, 2nd, Mean); 1.0E-06 M
T12 construct: purchased DiscoverX KINOMEscan scanEDGE; Eurofins Cerep SafetyScreen87
Procedure: as §1

[13] = biological target: T13, Potassium Channel hERG (human)- [3H] Dofetilide (Homo sapiens, UniProt Q12809); conditions: 1.0E-06 M, read-out: % Inhibition of Control Specific Binding (1st, 2nd, Mean)
T13 construct: Eurofins Discovery (Cerep, France) SafetyScreen87 panel
Procedure: as §1

[14] = biological target: T14, CB1 (h) (agonist radioligand) (Homo sapiens, UniProt P21554); conditions: 1.0E-06 M, read-out: % Inhibition of Control Specific Binding (1st, 2nd, Mean)
T14 construct: purchased DiscoverX KINOMEscan scanEDGE; Eurofins Cerep SafetyScreen87
Procedure: as §1

[15] = biological target: T15, CB2 (h) (agonist radioligand) (Homo sapiens, UniProt P34972); conditions: 1.0E-06 M, read-out: % Inhibition of Control Specific Binding (1st, 2nd, Mean)
T15 construct: purchased DiscoverX KINOMEscan scanEDGE; Eurofins Cerep SafetyScreen87
Procedure: as §1

[16] = tested on: Ca2+ channel (L, dihydropyridine site) (antagonist radioligand); conditions: 1.0E-06 M, read-out: % Inhibition of Control Specific Binding (1st, 2nd, Mean)
Procedure: as §1

[17] = tested on: Ca2+ channel (L, verapamil site) (phenylalkylamine) (antagonist radioligand); conditions: 1.0E-06 M, read-out: % Inhibition of Control Specific Binding (1st, 2nd, Mean)
Procedure: as §1

[18] = biological target: T16, A1 (h) (antagonist radioligand) (Homo sapiens, UniProt P30542); conditions: 1.0E-06 M, read-out: % Inhibition of Control Specific Binding (1st, 2nd, Mean)
T16 construct: purchased DiscoverX KINOMEscan scanEDGE; Eurofins Cerep SafetyScreen87
Procedure: as §1

[19] = biological target: T17, delta (DOP) (h) (agonist radioligand) (Homo sapiens, UniProt P41143); conditions: 1.0E-06 M; mean; read-out: % Inhibition of Control Specific Binding (1st, 2nd, Mean)
T17 construct: purchased DiscoverX KINOMEscan scanEDGE; Eurofins Cerep SafetyScreen87
Procedure: as §1

[20] = tested on: NMDA (antagonist radioligand); conditions: 1.0E-06 M, read-out: % Inhibition of Control Specific Binding (1st, 2nd, Mean)
Procedure: as §1

[21] = biological target: T18, 5-HT2C (h) (antagonist radioligand) (Homo sapiens, UniProt P28335); conditions: 1.0E-06 M; mean; read-out: % Inhibition of Control Specific Binding (1st, 2nd, Mean)
T18 construct: purchased DiscoverX KINOMEscan scanEDGE; Eurofins Cerep SafetyScreen87
Procedure: as §1

[22] = tested on: AMPA (agonist radioligand); conditions: 1.0E-06 M, read-out: % Inhibition of Control Specific Binding (1st, 2nd, Mean)
Procedure: as §1

[23] = biological target: T19, CysLT1 (LTD4) (h) (agonist radioligand) (Homo sapiens, UniProt Q9Y271); conditions: read-out: % Inhibition of Control Specific Binding (1st, 2nd, Mean); 1.0E-06 M
T19 construct: purchased DiscoverX KINOMEscan scanEDGE; Eurofins Cerep SafetyScreen87
Procedure: as §1

[24] = biological target: T20, alpha 2B (h) (antagonist radioligand) (Homo sapiens, UniProt P18089); conditions: 1.0E-06 M, read-out: % Inhibition of Control Specific Binding (1st, 2nd, Mean)
T20 construct: purchased DiscoverX KINOMEscan scanEDGE; Eurofins Cerep SafetyScreen87
Procedure: as §1

[25] = tested on: Cl- channel (GABA-gated) (TBOB site) (antagonist radioligand); conditions: 1.0E-06 M, read-out: % Inhibition of Control Specific Binding (1st, 2nd, Mean)
Procedure: as §1

[26] = biological target: T21, CCK1 (CCKA) (h) (agonist radioligand) (Homo sapiens, UniProt P32238); conditions: 1.0E-06 M; read-out: % Inhibition of Control Specific Binding (1st, 2nd, Mean)
T21 construct: purchased DiscoverX KINOMEscan scanEDGE; Eurofins Cerep SafetyScreen87
Procedure: as §1

[27] = tested on: GABA transporter (antagonist radioligand); conditions: 1.0E-06 M, read-out: % Inhibition of Control Specific Binding (1st, 2nd, Mean)
Procedure: as §1

[28] = biological target: T22, NK1 (h) (agonist radioligand) (Homo sapiens, UniProt P25103); conditions: 1.0E-06 M; mean; read-out: % Inhibition of Control Specific Binding (1st, 2nd, Mean)
T22 construct: purchased DiscoverX KINOMEscan scanEDGE; Eurofins Cerep SafetyScreen87
Procedure: as §1

[29] = biological target: T23, MAO-A (antagonist radioligand) (Rattus norvegicus, UniProt P21396); conditions: 1.0E-06 M; mean; read-out: % Inhibition of Control Specific Binding (1st, 2nd, Mean)
T23 construct: purchased DiscoverX KINOMEscan scanEDGE; Eurofins Cerep SafetyScreen87
Procedure: as §1

[30] = biological target: T24, Ca2+ channel (N) (antagonist radioligand) (Rattus norvegicus, UniProt Q02294)
T24 construct: Eurofins Discovery (Cerep, France) SafetyScreen87 panel
Procedure: as §1

[31] = 1.0E-06 M; read-out: % Inhibition of Control Specific Binding (1st, 2nd, Mean)
[32] = read-out: % Inhibition of Control Specific Binding (1st, 2nd, Mean); 1.0E-06 M

T20 sequence (P18089 whole entry): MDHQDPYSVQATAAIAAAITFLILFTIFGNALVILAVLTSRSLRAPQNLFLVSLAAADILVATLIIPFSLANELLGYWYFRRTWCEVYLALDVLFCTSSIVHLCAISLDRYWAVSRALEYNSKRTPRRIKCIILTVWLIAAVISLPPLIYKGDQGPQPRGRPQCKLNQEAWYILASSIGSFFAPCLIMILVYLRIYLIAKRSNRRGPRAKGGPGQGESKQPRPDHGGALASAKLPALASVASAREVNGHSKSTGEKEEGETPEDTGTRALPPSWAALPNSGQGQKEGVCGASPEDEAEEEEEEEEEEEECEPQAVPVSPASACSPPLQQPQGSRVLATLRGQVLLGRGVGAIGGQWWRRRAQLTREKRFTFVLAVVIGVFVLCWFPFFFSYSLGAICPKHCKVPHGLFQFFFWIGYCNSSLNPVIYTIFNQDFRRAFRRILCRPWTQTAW
T15 sequence (P34972 whole entry): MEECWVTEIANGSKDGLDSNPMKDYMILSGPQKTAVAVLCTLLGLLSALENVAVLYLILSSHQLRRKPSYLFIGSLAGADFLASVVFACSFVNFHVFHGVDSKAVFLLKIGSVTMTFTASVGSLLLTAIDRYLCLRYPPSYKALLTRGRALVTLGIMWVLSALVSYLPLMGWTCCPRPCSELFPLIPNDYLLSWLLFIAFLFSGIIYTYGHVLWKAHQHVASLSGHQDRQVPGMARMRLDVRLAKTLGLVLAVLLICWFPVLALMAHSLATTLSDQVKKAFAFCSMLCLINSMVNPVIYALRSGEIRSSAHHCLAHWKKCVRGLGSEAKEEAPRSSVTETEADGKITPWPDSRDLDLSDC
T2 sequence (P41594 21-1212): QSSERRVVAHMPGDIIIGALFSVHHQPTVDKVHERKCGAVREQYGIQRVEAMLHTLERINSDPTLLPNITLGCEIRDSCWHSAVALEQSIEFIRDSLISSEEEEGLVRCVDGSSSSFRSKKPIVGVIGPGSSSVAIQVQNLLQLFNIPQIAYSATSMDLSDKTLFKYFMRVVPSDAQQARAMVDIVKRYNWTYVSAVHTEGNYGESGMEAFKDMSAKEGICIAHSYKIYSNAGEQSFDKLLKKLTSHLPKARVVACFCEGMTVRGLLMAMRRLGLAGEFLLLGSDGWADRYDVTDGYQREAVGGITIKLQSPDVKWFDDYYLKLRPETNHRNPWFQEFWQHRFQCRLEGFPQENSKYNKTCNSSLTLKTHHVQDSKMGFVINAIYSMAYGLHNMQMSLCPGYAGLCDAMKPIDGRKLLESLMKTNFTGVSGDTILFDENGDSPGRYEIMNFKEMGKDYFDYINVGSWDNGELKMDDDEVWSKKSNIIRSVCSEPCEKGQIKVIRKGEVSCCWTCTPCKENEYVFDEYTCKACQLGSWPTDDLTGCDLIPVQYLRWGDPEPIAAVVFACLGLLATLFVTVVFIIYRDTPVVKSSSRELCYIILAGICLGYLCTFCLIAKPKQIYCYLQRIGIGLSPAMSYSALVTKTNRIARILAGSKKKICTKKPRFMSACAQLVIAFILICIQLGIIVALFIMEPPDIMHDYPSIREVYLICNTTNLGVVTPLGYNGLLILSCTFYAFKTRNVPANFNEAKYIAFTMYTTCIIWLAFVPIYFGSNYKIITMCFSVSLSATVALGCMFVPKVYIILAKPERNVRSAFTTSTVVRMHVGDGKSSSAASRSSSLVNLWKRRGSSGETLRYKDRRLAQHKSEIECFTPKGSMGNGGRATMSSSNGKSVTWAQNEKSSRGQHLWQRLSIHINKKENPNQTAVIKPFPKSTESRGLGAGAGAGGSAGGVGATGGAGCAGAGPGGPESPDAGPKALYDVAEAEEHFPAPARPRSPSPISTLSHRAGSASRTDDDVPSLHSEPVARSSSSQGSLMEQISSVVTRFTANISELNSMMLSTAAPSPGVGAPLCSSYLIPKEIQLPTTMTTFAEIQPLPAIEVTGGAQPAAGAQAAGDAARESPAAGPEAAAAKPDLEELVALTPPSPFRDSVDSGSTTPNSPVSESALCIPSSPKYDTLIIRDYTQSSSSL
T14 sequence (P21554 whole entry): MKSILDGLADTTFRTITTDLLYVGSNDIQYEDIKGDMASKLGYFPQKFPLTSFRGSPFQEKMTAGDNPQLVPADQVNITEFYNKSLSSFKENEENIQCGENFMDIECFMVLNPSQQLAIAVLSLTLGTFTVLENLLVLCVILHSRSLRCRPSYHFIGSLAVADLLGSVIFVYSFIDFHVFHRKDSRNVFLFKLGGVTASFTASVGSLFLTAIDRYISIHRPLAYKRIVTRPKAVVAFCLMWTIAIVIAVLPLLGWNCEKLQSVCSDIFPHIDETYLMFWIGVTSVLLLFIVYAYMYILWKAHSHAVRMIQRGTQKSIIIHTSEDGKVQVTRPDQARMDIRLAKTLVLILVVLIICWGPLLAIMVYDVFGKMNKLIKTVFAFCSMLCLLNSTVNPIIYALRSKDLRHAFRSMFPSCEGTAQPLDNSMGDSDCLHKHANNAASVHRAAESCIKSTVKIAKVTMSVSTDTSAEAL
T4 sequence (P14416 whole entry): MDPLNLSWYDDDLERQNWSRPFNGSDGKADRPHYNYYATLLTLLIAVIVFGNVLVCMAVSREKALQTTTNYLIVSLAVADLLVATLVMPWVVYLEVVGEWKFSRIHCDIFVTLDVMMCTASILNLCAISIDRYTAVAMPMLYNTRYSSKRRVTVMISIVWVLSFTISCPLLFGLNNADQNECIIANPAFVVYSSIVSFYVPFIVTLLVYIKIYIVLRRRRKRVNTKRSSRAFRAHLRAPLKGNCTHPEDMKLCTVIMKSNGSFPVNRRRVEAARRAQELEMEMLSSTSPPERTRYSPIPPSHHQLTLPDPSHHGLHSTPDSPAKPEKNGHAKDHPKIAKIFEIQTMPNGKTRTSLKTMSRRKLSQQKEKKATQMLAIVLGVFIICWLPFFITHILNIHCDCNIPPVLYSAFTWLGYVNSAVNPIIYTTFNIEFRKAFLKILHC
T16 sequence (P30542 whole entry): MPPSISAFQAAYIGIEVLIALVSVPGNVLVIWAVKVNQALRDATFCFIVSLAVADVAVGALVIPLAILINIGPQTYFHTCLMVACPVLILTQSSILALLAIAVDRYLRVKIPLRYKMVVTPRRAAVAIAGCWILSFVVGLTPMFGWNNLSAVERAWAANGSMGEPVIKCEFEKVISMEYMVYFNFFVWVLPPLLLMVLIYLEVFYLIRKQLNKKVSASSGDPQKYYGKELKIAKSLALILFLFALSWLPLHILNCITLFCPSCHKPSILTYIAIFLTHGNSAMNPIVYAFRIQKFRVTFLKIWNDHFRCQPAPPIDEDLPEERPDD
T11 sequence (P25100 whole entry): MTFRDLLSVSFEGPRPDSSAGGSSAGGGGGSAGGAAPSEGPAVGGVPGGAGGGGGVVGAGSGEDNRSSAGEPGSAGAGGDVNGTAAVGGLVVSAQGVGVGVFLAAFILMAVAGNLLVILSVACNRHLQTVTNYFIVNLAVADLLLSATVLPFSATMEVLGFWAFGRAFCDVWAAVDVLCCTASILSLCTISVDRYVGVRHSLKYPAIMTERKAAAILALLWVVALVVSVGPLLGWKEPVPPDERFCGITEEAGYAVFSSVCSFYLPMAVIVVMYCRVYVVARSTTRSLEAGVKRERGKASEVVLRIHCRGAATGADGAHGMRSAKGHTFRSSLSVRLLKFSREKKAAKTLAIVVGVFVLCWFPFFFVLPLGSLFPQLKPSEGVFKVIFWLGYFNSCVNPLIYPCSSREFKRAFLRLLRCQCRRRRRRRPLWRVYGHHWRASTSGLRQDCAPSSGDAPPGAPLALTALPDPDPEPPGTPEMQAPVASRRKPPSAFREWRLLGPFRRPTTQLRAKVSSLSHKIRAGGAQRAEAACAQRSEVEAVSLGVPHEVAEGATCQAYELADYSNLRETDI
T13 sequence (Q12809 whole entry): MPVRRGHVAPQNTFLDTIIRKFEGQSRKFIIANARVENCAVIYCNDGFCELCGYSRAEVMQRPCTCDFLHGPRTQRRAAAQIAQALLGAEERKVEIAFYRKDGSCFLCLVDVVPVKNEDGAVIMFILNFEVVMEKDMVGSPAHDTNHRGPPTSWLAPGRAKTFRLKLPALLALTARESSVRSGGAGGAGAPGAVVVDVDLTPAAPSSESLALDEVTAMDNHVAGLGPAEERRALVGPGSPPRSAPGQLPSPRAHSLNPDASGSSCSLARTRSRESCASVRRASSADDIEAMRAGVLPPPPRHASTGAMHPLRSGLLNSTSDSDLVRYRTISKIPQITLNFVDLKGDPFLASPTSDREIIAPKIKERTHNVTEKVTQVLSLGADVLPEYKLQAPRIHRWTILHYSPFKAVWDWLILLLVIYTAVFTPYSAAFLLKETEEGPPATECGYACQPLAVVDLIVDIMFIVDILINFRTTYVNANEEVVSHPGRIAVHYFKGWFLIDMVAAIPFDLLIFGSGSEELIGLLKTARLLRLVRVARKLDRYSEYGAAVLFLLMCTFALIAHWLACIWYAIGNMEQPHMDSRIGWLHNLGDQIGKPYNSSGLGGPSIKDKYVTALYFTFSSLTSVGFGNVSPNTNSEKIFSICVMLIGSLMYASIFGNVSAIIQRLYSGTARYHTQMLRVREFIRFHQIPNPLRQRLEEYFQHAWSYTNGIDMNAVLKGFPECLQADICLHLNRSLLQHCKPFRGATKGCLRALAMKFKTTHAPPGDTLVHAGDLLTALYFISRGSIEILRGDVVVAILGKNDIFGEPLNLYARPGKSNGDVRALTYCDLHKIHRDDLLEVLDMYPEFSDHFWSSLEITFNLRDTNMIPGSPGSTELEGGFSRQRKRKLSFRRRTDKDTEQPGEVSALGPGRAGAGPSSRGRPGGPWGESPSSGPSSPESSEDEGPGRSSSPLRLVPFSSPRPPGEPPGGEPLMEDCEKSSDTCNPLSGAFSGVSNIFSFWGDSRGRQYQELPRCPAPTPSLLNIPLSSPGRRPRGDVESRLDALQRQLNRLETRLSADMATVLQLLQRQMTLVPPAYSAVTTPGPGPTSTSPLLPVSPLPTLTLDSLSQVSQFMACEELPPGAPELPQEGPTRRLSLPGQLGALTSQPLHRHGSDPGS

Structure (SMILES): CNc1ccc(NCCc2ccccc2OC)cc1.Cl [KDS12025, N^1-(2-methoxyphenethyl)-N^4-methylbenzene-1,4-diamine hydrochloride salt]
- activity at 1 µM (hERG potassium channel): 70.3%
- activity ([1]; mean): 115%
- activity [1]: 114% and 116%
- activity [2]: 95.3%
- activity ([3]; mean): 84%
- activity [3]: 74.8% and 93.2%
- activity [4]: 82.7%
- activity [5]: 94.7%
- activity [6]: 91.8%
- activity [7, 31]: 104%
- activity [7, 32]: 96.8%
- activity ([8]; mean): 96.5%
- activity [8]: 85.3% and 108%
- activity [9]: 90.9%
- activity [10]: 88.2%
- activity ([11]; mean): 75.8%
- activity [11]: 75.3% and 76.3%
- activity [12]: 94.2%
- activity ([13]; mean): 68.5%
- activity [13]: 66.8%
- activity ([14]; mean): 80%
- activity [14]: 81.7% and 78.4%
- activity ([15]; mean): 84.6%
- activity [15]: 78.4% and 90.8%
- activity ([16]; mean): 129%
- activity [16]: 138% and 121%
- activity ([17]; mean): 98%
- activity [17]: 101% and 95.5%
- activity ([18]; mean): 114%
- activity [18]: 115% and 114%
- activity [19]: 79.7%
- activity ([20]; mean): 98.7%
- activity [20]: 97.8% and 99.6%
- activity [21]: 76.4%
- activity ([22]; mean): 100%
- activity [22]: 98% and 103%
- activity [23]: 87.1%
- activity ([24]; mean): 84.2%
- activity [24]: 81.9% and 86.6%
- activity ([25]; mean): 96.4%
- activity [25]: 104% and 89%
- activity [26]: 104%
- activity ([27]; mean): 96%
- activity [27]: 101% and 91.1%
- activity [28]: 91.2%
- activity [29]: 100%
- activity [30, 31]: 118%
- activity [30, 32]: 104%
